The assay addresses PI3Kα (Homo sapiens, UniProt P42336). The assay can be described thus: cell-free ADP-Glo kinase assay with recombinant PI3Kα and poly-EY substrate. Type of assay: biochemical. (ADP-Glo first removes unused ATP, then detects ADP through luciferase.)

Structures are written as SMILES.

PI3Kα, sequence (P42336 whole entry): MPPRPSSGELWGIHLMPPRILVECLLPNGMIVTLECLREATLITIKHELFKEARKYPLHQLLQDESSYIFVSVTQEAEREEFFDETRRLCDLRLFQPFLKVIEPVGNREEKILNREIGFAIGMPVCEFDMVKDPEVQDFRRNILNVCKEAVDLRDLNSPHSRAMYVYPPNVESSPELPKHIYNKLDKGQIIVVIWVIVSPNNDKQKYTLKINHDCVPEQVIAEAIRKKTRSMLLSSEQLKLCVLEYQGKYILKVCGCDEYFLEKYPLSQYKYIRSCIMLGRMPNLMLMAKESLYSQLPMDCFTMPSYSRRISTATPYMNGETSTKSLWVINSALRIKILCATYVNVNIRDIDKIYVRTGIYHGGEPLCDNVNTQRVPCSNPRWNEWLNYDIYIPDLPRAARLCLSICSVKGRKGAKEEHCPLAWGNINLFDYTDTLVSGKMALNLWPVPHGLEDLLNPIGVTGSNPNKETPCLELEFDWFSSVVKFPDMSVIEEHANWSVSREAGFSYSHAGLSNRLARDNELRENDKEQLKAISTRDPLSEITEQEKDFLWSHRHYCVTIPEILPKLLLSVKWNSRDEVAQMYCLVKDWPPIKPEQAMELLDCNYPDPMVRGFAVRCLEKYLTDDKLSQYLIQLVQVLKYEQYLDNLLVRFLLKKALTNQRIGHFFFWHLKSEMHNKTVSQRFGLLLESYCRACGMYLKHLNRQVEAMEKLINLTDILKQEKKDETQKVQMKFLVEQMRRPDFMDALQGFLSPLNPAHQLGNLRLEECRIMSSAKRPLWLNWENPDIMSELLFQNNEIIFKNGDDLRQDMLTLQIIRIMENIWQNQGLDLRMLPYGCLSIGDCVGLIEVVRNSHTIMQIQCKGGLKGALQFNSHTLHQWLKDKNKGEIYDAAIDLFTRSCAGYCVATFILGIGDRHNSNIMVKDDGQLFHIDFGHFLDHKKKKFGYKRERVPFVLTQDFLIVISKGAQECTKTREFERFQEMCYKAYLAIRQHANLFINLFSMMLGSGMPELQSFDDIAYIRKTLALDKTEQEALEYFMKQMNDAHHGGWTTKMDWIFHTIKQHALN
PI3Kα, sequence (P27986 2-724, further chain): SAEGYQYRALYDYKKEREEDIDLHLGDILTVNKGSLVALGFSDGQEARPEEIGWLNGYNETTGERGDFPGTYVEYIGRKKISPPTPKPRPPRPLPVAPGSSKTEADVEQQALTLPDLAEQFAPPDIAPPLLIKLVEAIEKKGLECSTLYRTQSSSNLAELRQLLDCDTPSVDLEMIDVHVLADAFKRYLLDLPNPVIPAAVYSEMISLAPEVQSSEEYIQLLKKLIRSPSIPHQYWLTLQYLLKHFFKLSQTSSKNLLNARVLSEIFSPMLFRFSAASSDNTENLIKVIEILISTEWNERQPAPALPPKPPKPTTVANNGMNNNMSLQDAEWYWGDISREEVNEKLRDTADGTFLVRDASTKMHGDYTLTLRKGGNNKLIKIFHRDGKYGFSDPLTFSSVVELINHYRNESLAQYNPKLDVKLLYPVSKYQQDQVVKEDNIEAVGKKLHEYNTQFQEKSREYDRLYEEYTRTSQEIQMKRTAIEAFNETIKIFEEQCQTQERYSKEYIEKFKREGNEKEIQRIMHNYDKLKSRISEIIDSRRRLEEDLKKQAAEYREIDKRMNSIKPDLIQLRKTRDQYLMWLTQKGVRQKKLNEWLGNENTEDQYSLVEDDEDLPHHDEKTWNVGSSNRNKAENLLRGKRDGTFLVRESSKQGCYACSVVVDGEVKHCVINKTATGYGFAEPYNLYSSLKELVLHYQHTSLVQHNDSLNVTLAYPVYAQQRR

For `OCCN1CCN(CC/C=C2/c3ccccc3Sc3ccc(C(F)(F)F)cc32)CC1` [flupentixol], the IC50 was 127 ± 5.87 nM.

A word on the IC50: it is the point on the concentration scale where inhibition reaches its midpoint.
